pIC50: −log10 of the molar value.
Molecular target: T1, wild-type HIV-1 protease (Human immunodeficiency virus type 1 group M subtype B, UniProt P04585)
T1 construct: Escherichia coli expressed wild-type HIV-1 protease protein
Experiment: Assay for Inhibition of Microbial Expressed HIV Protease (peptide substrate cleavage, LC-MS/MS readout)
Format: biochemical
Settings: E. coli expressed wild-type HIV-1 protease, mean of at least two independent experiments, read-out: HIV Pr Enzyme HIV1 PR IC50
Procedure: Assay for Inhibition of Microbial Expressed HIV Protease
Inhibition of Escherichia coli expressed wild-type HIV-1 protease protein was carried out with a peptide substrate [Val-Ser-Gln-Asn-(βnaphtyl)Ala-Pro-Ile-Val]. The inhibitor compound was preincubated with HIV-1 protease enzyme in assay buffer (50 mM sodium acetate, pH 5.5, 100 mM NaCl, and 0.1% BSA) for 30 minutes at room temperature. Peptide substrate was added to 400 μM in a total volume of 20 μL containing […] HIV-1 protease (final) after which the reaction was incubated for 1 hour at 30° C. […] The extent of inhibition of the reaction was determined from the peak area of the products.
Data shown in the table reflects the mean of at least two independent experiments.

Row | Compound | pIC50
1 | Cn1ccc2c(-c3ncc4c(n3)CN(C(=O)c3cc(CN5C(=N)N[C@](CCCC(F)(F)F)(c6ccc(F)cc6)C5=O)ccc3C(F)(F)F)C4)cccc21 [Compound 41, (5R)-5-(4-fluorophenyl)-2-imino-3-[3-{[2-(1-methyl-1H-indol-4-yl)-5,7-dihydro-6H-pyrrolo[3,4-d]pyrimidin-6-yl]carbonyl}-4-(trifluoromethyl)benzyl]-5-(4,4,4-trifluorobutyl)imidazolidin-4-one] | 8.37
2 | CC(C)CC(c1ccc(C(F)(F)F)c(C(=O)N2CCn3c(nnc3C(F)(F)F)C2)c1)N1C(=N)N[C@](C[C@@H]2CCOC2)(c2ccc(F)cc2)C1=O (stereo partly drawn) [Compound 42, (5R)-5-(4-fluorophenyl)-2-imino-3-{3-methyl-1-[4-(trifluoromethyl)-3-{[3-(trifluoromethyl)-5,6-dihydro-[1,2,4]triazolo[4,3-a]pyrazin-7(8H)-yl]carbonyl}phenyl]butyl}-5-[(3R)-tetrahydrofuran-3-ylmethyl]-imidazolidin-4-one] | 8.37
3 | Cn1ncc2cc(-c3ncc4c(n3)CN(C(=O)c3cc(CN5C(=N)N[C@](CCCC(F)(F)F)(c6ccc(F)cc6)C5=O)ccc3C(F)(F)F)C4)ccc21 [Compound 43, (5R)-5-(4-fluorophenyl)-2-imino-3-[3-{[2-(1-methyl-1H-indazol-5-yl)-5,7-dihydro-6H-pyrrolo[3,4-d]pyrimidin-6-yl]carbonyl}-4-(trifluoromethyl)benzyl]-5-(4,4,4-trifluorobutyl)imidazolidin-4-one] | 8.35
4 | CS(=O)(=O)Nc1cccc(-c2ncc3c(n2)CN(C(=O)c2cc(CN4C(=N)N[C@](CCCC(F)(F)F)(c5ccc(F)cc5)C4=O)ccc2C(F)(F)F)C3)c1 [Compound 44, N-[3-(6-{[5-{[(4R)-4-(4-fluorophenyl)-2-imino-5-oxo-4-(4,4,4-trifluorobutyl)imidazolidin-1-yl]methyl}-2-(trifluoromethyl)-phenyl]carbonyl}-6,7-dihydro-5H-pyrrolo[3,4-d]pyrimidin-2-yl)phenyl]methanesulfonamide] | 8.34
5 | CN1CCOc2cc(-c3ncc4c(n3)CN(C(=O)c3cc(CN5C(=N)N[C@](CCCC(F)(F)F)(c6ccc(F)cc6)C5=O)ccc3C(F)(F)F)C4)cnc21 [Compound 45, (5R)-5-(4-fluorophenyl)-2-imino-3-[3-{[2-(4-methyl-3,4-dihydro-2H-pyrido[3,2-b][1,4]oxazin-7-yl)-5,7-dihydro-6H-pyrrolo[3,4-d]pyrimidin-6-yl]carbonyl}-4-(trifluoromethyl)benzyl]-5-(4,4,4-trifluorobutyl)imidazolidin-4-one] | 8.34
6 | CC(C)Cn1cc(-c2ncc3c(n2)CN(C(=O)c2cc(CN4C(=N)N[C@](CCCC(F)(F)F)(c5ccc(F)cc5)C4=O)ccc2C(F)(F)F)C3)cn1 [Compound 46, (5R)-5-(4-fluorophenyl)-2-imino-3-[3-({2-[1-(2-methylpropyl)-1H-pyrazol-4-yl]-5,7-dihydro-6H-pyrrolo[3,4-d]pyrimidin-6-yl}carbonyl)-4-(trifluoromethyl)-benzyl]-5-(4,4,4-trifluorobutyl)-imidazolidin-4-one] | 8.32
7 | N=C1N[C@](CCCC(F)(F)F)(c2ccc(F)cc2)C(=O)N1Cc1ccc(C(F)(F)F)c(C(=O)N2Cc3cnc(-c4cccnc4)nc3C2)c1 [Compound 47, (5R)-5-(4-fluorophenyl)-2-imino-3-{3-[(2-pyridin-3-yl-5,7-dihydro-6H-pyrrolo[3,4-d]pyrimidin-6-yl)carbonyl]-4-(trifluoromethyl)-benzyl}-5-(4,4,4-trifluorobutyl)-imidazolidin-4-one] | 8.31
8 | Cc1nnc(-c2cccc(-c3ncc4c(n3)CN(C(=O)c3cc(CN5C(=N)N[C@](CCCC(F)(F)F)(c6ccc(F)cc6)C5=O)ccc3C(F)(F)F)C4)c2)o1 [Compound 48, (5R)-5-(4-fluorophenyl)-2-imino-3-[3-({2-[3-(5-methyl-1,3,4-oxadiazol-2-yl)phenyl]-5,7-dihydro-6H-pyrrolo[3,4-d]pyrimidin-6-yl}carbonyl)-4-(trifluoromethyl)-benzyl]-5-(4,4,4-trifluorobutyl)-imidazolidin-4-one] | 8.28

— patent publication US20200069691A1, “HETEROCYCLIC COMPOUNDS AS HIV PROTEASE INHIBITORS” (Merck Sharp & Dohme Corp., priority 2016, published 2020)
